Measured values from patent US10100052B2, “Compounds for the treatment of hepatitis B virus infection” (Gilead Sciences, Inc., priority 2016, dated 2018).

Legend:
[1] = In vitro metabolic stability, hepatic microsomes (human); format: in vitro ADME; details: pooled hepatic microsomes, pH 7.4; human hepatic microsomes 1.0 mg/mL, 1 μM compound, NADPH and UDPGA cofactors; read-out: Microsome Stability T1/2 Human
Method: (§1) Pooled hepatic microsomes were diluted in […] potassium phosphate buffer to 1.0 mg/mL final protein concentration. Alamethicin was added to the microsomal fraction to permeabilize the membrane to allow access of the UDP-glucronic acid (UDPGA) co-substrate to the active site of the UDP glucuronosyl transferase (UGT) enzymes. The final concentration was 25 μg/mL (ratio 25 μg alamethicin/mg microsomal protein) and the microsomes were then placed on ice for 15 min prior to the start of the reaction. Test compound was added to a final concentration of 1 μM. Positive control compounds known to be metabolized by oxidative and UGT enzymes were used. The metabolic reaction was warmed to 37° C. and initiated by the addition of a cofactor mix that consisted of 1.55 mM NADP, 3.3 mM glucose-6-phosphate, 0.4 U/mL glucose-6-phosphate dehydrogenase, 5 mM UDP-glucuronic acid and 3.3 mM MgCl2 all dissolved in 0.1 M potassium phosphate buffer, pH 7.4. At 2, 12, 25, 45, and 65 min, 25 μL aliquots of the reaction mixture were transferred to plates containing 225 μl of quenching solution (acetonitrile containing 300 nM labetalol IS and 0.1% formic acid). After quenching, the plates are centrifuged at 3000×g for 30 minutes to precipitate proteins, and 10 μL aliquots of the supernatant are analyzed by HPLC coupled to a high-resolution mass spectrometer.
(§2) Quantification of test compounds and positive controls were performed using analyte/internal standard peak area ratios (PAR) measured on a Q-Exactive mass spectrometer (Thermo Scientific, San Jose, Calif.) coupled to an Aria Transcend LX-4 multiplex UHPLC system (Thermo Scientific, San Jose, Calif.). A Hypersil Gold C18 UHPLC column (1.9 […], 50×2.1 mm) was used with mobile phases A and B consisting of 0.1% formic acid in water and 0.1% formic acid in acetonitrile, respectively. […] Half-lives of compounds in the incubations were calculated from extracted data using GMSU/QuickCalc (Gubbs, Inc.) and data are summarized in the following Table 3.

MT-4 cytotoxicity assay = format: cell-based; details: human, MT-4 cells; five days incubation, Cell Titer Glo
Method: The MT-4 cell line (HTLV-1 transformed, human T lymphoblastoid cells) was obtained from the NIH AIDS Reagent program (Bethesda, Md.). MT-4 cells were maintained in RPMI-1640 supplemented with 10% fetal bovine serum (FBS, Hyclone, Logan, Utah). All cell culture media were also supplemented with 100 Units/mL penicillin, 100 μg/mL streptomycin (Gibco). For the MT-4 cytotoxicity assay, 0.4 μL of serially diluted solutions of certain compounds disclosed herein were added to 40 μL of cell maintenance media in 384-well black, solid bottom plate using a Biomek FX workstation (Beckman Coulter). Two thousand cells in 35 μL were added to each well using a Biotek uFlow Workstation (Biotek). Each assay plate contained 10 μM puromycin (final concentration) and 0.5% DMSO in RPMI-1640 as positive and negative controls, respectively. Assay plates were incubated for five days at 37° C. in an incubator set at 5% CO2 and 90% humidity. After five days, 22 μL of Cell Titer Glo reagent (Promega) was added to the assay plates with a Biotek uFlow Workstation. Plates were subsequently placed on a Perkin Elmer Envision Plate Reader for five minutes before the luminescence signal was read. CC50 values were calculated by non-linear regression using Pipeline Pilot software by applying a four parameter fit equation (Accelrys, San Diego, Calif.) and are reported in the following Table 2.

HBsAg = assay: PHH assay for inhibition of HBsAg; format: cell-based, genotype D (AD38-derived) HBV in primary human hepatocytes; details: Hepatitis B virus, 288 h, read-out: HBsAg EC50
Method: Primary human hepatocytes (PHH) (Bioreclamation IVT) were plated on collagen-coated flasks using Plating Media (Life Technologies) containing William's Medium E supplemented with 1% penicillin/streptomycin, 4 μg/mL human recombinant insulin, 2 mM GlutaMAX, 15 mM HEPES, 1 μM dexamethasone, 5% fetal bovine serum, and 0.2% Torpedo Antibiotic Mix (Bioreclamation IVT). After a 4-hour incubation at 37° C., cells were switched to Maintenance Media (Life Technologies) containing William's Medium E supplemented with 0.5% penicillin/streptomycin, 6.25 µg/mL human recombinant insulin, 6.25 μg/mL human transferrin, 6.25 ng/mL selenous acid, 1.25 mg/mL bovine serum albumin, 5.35 μg/mL linoleic acid, 2 mM GlutaMAX, 15 mM HEPES, 0.1 μM dexamethasone, 2% fetal bovine serum, 2% DMSO, and 0.2% Torpedo Antibiotic Mix (Bioreclamation IVT). On the next day, PHH were infected with 500 genome equivalent per cell of genotype D (AD38-derived) HBV in Maintenance Media supplemented with 4% PEG 8000 (Promega). After 24 hour incubation, cells were washed three times with William's Medium E and fed with fresh Maintenance Media. At 3 days after infection, infected PHH cells were seeded on 96-well plates pre-coated with collagen at a density of 65000 cells per well containing serially diluted solutions of certain compounds disclosed herein or DMSO (1% final concentration) in a final volume of 125 μl of Maintenance Media (Life Technologies) containing William's Medium E supplemented with 0.5% penicillin/streptomycin, 6.25 μg/mL human recombinant insulin, 6.25 μg/mL human transferrin, 6.25 ng/mL selenous acid, 1.25 mg/mL bovine serum albumin, 5.35 μg/mL linoleic acid, 2 mM GlutaMAX, 15 mM HEPES, 0.1 μM dexamethasone, 5% fetal bovine serum, 1 mM 1-amininobenzotriaole, and 0.2% Torpedo Antibiotic Mix (Bioreclamation IVT). Media with compounds was replenished every 2-3 days. After an incubation time of 12 days, secreted HBsAg in the supernatant were measured using a multiplex chemiluminescent (Mesoscale discovery, MSD) assay using capture and detection antibody pairs specific for HBsAg. Comparative Example 1 and Comparative Example 2 have the following structures and were prepared according to International Publication No. WO 2015/113990.

[2] = In vitro metabolic stability, hepatic microsomes (rat); format: in vitro ADME; details: pooled hepatic microsomes, pH 7.4; rat hepatic microsomes 1.0 mg/mL, 1 μM compound, NADPH and UDPGA cofactors; read-out: Microsome Stability T1/2 Rat
Method: as §1, §2

COCCCOc1cc2c(cc1Cl)-c1cc(=O)c(C(=O)O)cn1[C@H](C1(C)CC1)C2 [Comparative Example 1]
half-life at 1 μM [1]: 3.9 h
CC50 at 5 days (MT-4 cytotoxicity assay): 4200 nM
EC50 (HBsAg): 1.8 nM
half-life at 1 μM [2]: 3.82 h

COCCCOc1cc2c(cc1Cl)-c1cc(=O)c(C(=O)O)cn1N(C(C)(C)C)C2 [Example 2, 6-(tert-Butyl)-10-chloro-9-(3-methoxypropoxy)-2-oxo-6,7-dihydro-2H-pyrido[2,1-a]-phthalazine-3-carboxylic acid]
half-life at 1 μM [1]: > 5.83 h
CC50 at 5 days (MT-4 cytotoxicity assay): > 10000 nM
EC50 (HBsAg): 3 nM
half-life at 1 μM [2]: > 5.83 h

COCCCOc1cc2c(cc1Cl)-c1cc(=O)c(C(=O)O)cn1[C@H](C(C)(C)C)C2 [Comparative Example 2]
half-life at 1 μM [1]: 4.9 h
CC50 at 5 days (MT-4 cytotoxicity assay): 5700 nM
EC50 (HBsAg): 0.5 nM
half-life at 1 μM [2]: 3.83 h
